Patent US20040009899A1, “Treating dominant disorders” (priority 2002, published 2004)

What was measured:
mice = assay: Toxicity observation (behavior, weight, motor function) during intraventricular PNA treatment; format: in vivo; conditions: 1.0 μL (25 μg/μL) into the ventricle every other day
Description: Animal treatment and tissue preparation: Aliquots of 1.0 μL (25 μg/μL) of a PNA oligomer specific for the expanded human HD allele (HDs) or a scrambled control PNA (HDscr) were administered into the ventricle every other day by injection via the cannula.

[1] = system: endogenous mouse Hdh allele; assay: Western immunoblot of endogenous mouse htt expression in PNA-treated R6/1 mice; format: in vivo; conditions: any tissue examined (striatum, liver), any tested time point (4 or 6 days)
Description: Cannulation and microsurgery—method 1: B6CBA, R6/1, and R6/2 mice were obtained from The Jackson Laboratory (Bar Harbor, Me.). Mice were anesthetized via intraperitoneal (i.p.) injection with 100 mg/kg of a ketamine/xylazine solution containing 8 mg/mL ketamine and 1 mg/mL xylazine in 0.9% saline. Once anesthetized, each mouse was cannulated. Each anesthetized mouse was placed in a Stoelting Stereotaxic Frame with a mouse adapter (Stoelting Instruments, Wood Dale, Ill.). An incision was made using a scalpel, and the skin and tissue were pulled back with swabs to reveal the skull. The cannulation site was positioned for optimum access to the ventricle, at coordinates AP −0.2 mm, Horiz −1 mm from bregma. A cannula entry port and two bone screw ports were opened in the skull using a Dremel Flex Shaft Drill (Stoelting Instruments) with a 2.1 mm burr for the guide cannula port and a 0.7 mm burr for the bone screws (Fine Science Tools, Foster City, Calif.). Two 4.0 mm long bone screws (0.85 diameter) were placed far enough into the bone screw ports to fasten securely. […]
Following the treatment period, mice were anesthetized with ether and sacrificed by cervical dislocation. […] Following centrifugation, the supernatants were removed and protein concentrations were quantified by Bradford assays using a BSA standard. […]

GAPDH = assay: Western immunoblot of GAPDH (non-targeted gene) in PNA-treated R6/1 mice; format: in vivo, mouse; conditions: any animal tested
Description: Following the treatment period, mice were anesthetized with ether and sacrificed by cervical dislocation. Whole brains and livers were removed and placed in 0.9% saline. Striatum tissue was dissected from whole brains, and liver tissue was finely minced. The tissues were placed in separate 2 mL microfuge tubes on dry ice and then suspended in 20 volumes of RIPA buffer (50 mM Tris pH 8, 150 mM NaCl, 1 mM EDTA, 1 mM EGTA, 0.5% sodium deoxycholate, 0.1% SDS, 1% TritonX-100, 2 μg/mL leupeptin, 2 μg/mL aprotinin, 1 μg/mL pepstatin, 1 mM phenylmethylsulfonylfluoride) per gram of tissue. Suspended tissues were homogenized by sonication, and the homogenates were clarified by centrifugation at 12,000×g for 20 minutes at 4° C. Following centrifugation, the supernatants were removed and protein concentrations were quantified by Bradford assays using a BSA standard.
Immunoblotting: Supernatants from the tissue homogenates were mixed with 1/6 volume of 6×SDS sample buffer (350 mM Tris pH 6.8, 10% SDS, 30% glycerol, 15% 2-mercaptoethanol, 0.012% bromophenol blue). Equal amounts of protein were directly loaded onto 10% acrylamide/0.05% bisacrylamide gels without heat denaturation. […] Protein bands were detected on film by chemiluminescence. […]

HDscr: scrambled control PNA oligomer, 5′-GCAGCGGCGGTCCT-3′ (SEQ ID NO:4) (all peptide nucleic acid (PNA)) [reference compound]
toxicity as measured by weight or motor function relative to untreated animals (mice): no effects of toxicity | effect on expression of the endogenous mouse Hdh allele [1]: Neither HDs nor HDscr had any effect | inhibition of non-targeted genes such as GAPDH (GAPDH): No measurable inhibition
